The source made the active and inactive calls. The rule behind the calls is not given here.
Columns and labels:
Progesterone receptor = target: T1, Progesterone receptor (Homo sapiens, UniProt P06401); assay: Inhibition of human progesterone receptor
T1 sequence (P06401 whole entry): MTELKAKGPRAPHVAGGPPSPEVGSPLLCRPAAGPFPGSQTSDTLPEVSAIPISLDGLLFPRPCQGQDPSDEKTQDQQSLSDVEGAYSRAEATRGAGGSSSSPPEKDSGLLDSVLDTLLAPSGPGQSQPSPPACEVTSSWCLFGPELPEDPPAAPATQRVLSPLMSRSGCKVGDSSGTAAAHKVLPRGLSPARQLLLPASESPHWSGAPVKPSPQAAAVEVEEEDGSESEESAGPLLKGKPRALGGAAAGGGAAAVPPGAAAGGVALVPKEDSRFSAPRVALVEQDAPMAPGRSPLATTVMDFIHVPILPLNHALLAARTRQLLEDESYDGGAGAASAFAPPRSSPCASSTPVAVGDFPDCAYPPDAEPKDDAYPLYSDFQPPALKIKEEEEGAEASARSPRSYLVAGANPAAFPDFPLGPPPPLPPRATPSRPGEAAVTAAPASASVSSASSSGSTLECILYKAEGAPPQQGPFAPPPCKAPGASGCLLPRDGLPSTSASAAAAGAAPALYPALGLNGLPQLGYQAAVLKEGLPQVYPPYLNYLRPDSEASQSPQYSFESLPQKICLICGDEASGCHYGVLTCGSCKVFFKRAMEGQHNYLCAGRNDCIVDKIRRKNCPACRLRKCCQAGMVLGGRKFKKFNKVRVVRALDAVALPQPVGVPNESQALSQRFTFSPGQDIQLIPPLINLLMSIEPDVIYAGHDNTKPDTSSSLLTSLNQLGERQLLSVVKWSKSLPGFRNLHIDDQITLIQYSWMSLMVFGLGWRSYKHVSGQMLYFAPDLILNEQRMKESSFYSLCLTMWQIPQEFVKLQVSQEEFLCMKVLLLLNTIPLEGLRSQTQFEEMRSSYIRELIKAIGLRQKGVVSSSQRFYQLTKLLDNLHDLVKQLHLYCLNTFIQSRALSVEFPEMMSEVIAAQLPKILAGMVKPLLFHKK

Rattus norvegicus [1] = assay: Effect on plasma insulin level in Zucker fatty rat at 30 mg/kg, after 5 days
Rattus norvegicus [2] = assay: Inhibition of granuloma formation in cotton pellet implanted Lewis rat at 19 mg/kg, po bid; format: functional
[3] = Volume of distribution at steady state in rat; format: ADME, organism-based; details: in vivo, read-out: Vdss
Rattus norvegicus [4] = assay: Effect on thymus weight in Lewis rat with implanted cotton pellets at 5.0 mg/kg, po bid; format: functional
Rattus norvegicus [5] = species: Rattus norvegicus; assay: Transactivation activity of glutamine synthase in rat skeletal muscle cells relative to Dexamethasone; format: cell-based
Rattus norvegicus [6] = assay: Inhibition of granuloma formation in cotton pellet implanted Lewis rat at 5.0 mg/kg, po bid; format: functional
Rattus norvegicus [7] = assay: Effect on adrenal weight in Lewis rat with implanted cotton pellets at 5.0 mg/kg, po bid; format: functional
Rattus norvegicus [8] = assay: Effect on spleen weight in Lewis rat with implanted cotton pellets at 5.0 mg/kg, po bid; format: functional
Rattus norvegicus [9] = assay: Effect on spleen weight in Lewis rat with implanted cotton pellets at 19 mg/kg, po bid; format: functional
[10] = target: T2, Interstitial collagenase (Homo sapiens) (UniProt P03956); assay: Inhibition of glucocorticoid-mediated human MMP1 expression in PMA stimulated A549 cells assessed as MMP1 protein level by ELISA relative to Dexamethasone; format: cell-based; set-up: scale not given: the % may be the effect or the level left
T2 sequence (whole entry): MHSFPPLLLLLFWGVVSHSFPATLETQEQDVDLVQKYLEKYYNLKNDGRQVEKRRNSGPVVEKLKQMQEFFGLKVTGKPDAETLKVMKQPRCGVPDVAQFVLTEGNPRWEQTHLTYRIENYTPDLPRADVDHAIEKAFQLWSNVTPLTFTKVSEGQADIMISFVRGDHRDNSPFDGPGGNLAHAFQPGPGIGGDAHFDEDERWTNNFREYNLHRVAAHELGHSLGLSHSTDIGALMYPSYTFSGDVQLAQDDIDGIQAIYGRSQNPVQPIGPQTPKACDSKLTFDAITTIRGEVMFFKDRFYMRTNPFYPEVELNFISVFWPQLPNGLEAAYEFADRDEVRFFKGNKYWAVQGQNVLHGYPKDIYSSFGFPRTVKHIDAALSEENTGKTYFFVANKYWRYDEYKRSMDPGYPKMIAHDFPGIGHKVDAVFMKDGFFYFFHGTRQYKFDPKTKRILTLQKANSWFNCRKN

Rattus norvegicus [11] = assay: Effect on body weight change in Lewis rat with implanted cotton pellets at 19 mg/kg, po bid for 7 days; format: functional
Rattus norvegicus [12] = assay: Effect on body weight change in Lewis rat with implanted cotton pellets at 10 mg/kg, po bid for 7 days; format: functional
Mus musculus = species: Mus musculus; assay: Inhibition of LPS-induced TNFalpha production in mouse; format: functional
Rattus norvegicus [13] = assay: Effect on thymus weight in Lewis rat with implanted cotton pellets at 10 mg/kg, po bid; format: functional
Rattus norvegicus [14] = assay: Effect on body weight change in Lewis rat with implanted cotton pellets at 10 mg/kg, po bid for 4 days; format: functional
Rattus norvegicus [15] = assay: Inhibition of granuloma formation in cotton pellet implanted Lewis rat at 10 mg/kg, po bid; format: functional
[16] = Oral bioavailability in rat; format: ADME, organism-based; details: in vivo
Rattus norvegicus [17] = assay: Effect on adrenal weight in Lewis rat with implanted cotton pellets at 19 mg/kg, po bid; format: functional
Glucocorticoid receptor = target: T3, Glucocorticoid receptor (Homo sapiens, UniProt P04150)
T3 sequence (P04150 whole entry): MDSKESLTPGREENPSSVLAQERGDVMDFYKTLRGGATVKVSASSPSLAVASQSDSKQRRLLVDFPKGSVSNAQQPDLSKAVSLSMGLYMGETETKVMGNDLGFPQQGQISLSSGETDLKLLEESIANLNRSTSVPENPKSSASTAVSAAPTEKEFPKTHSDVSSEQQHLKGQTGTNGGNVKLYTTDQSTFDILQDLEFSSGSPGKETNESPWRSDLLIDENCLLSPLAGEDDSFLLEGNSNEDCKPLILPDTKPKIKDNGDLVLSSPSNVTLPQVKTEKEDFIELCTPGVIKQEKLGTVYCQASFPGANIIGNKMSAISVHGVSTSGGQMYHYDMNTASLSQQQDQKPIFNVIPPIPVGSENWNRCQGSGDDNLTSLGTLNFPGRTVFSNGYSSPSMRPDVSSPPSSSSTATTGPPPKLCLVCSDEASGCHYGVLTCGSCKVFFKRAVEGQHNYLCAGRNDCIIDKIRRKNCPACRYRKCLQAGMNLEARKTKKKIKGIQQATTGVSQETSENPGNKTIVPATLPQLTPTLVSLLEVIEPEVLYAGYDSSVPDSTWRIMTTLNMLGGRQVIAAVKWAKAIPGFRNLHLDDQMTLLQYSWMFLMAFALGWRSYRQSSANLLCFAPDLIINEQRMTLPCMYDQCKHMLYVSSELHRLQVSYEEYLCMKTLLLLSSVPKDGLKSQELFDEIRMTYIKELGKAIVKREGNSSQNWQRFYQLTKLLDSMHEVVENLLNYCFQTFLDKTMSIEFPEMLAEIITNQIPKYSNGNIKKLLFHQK
Description: Inhibition of human glucocorticoid receptor

Rattus norvegicus [18] = assay: Effect on plasma glucose level in nonfasted Zucker fatty rat at 30 mg/kg, after 5 days
Rattus norvegicus [19] = assay: Effect on plasma triglyceride level in Zucker fatty rat at 30 mg/kg, after 5 days
[20] = Half life in rat; format: ADME, organism-based; details: in vivo
Rattus norvegicus [21] = assay: Effect on adrenal weight in Lewis rat with implanted cotton pellets at 10 mg/kg, po bid; format: functional
Rattus norvegicus [22] = assay: Effect on body weight change in Zucker fatty rat at 30 mg/kg, after 5 days
Rattus norvegicus [23] = assay: Effect on body weight change in Lewis rat with implanted cotton pellets at 5.0 mg/kg, po bid for 7 days; format: functional
Rattus norvegicus [24] = assay: Effect on spleen weight in Lewis rat with implanted cotton pellets at 10 mg/kg, po bid; format: functional
Rattus norvegicus [25] = assay: Effect on thymus weight in Lewis rat with implanted cotton pellets at 19 mg/kg, po bid; format: functional
Rattus norvegicus [26] = assay: Effect on body weight change in Lewis rat with implanted cotton pellets at 5.0 mg/kg, po bid for 4 days; format: functional
[27] = Plasma clearance in rat; format: ADME, organism-based
Rattus norvegicus [28] = assay: Effect on body weight change in Lewis rat with implanted cotton pellets at 19 mg/kg, po bid for 4 days; format: functional

Compound: CCNC(=O)O[C@]1(C(=O)CO)[C@@H](C)C[C@H]2[C@@H]3CCC4=CC(=O)C=C[C@]4(C)[C@@]3(F)[C@@H](O)C[C@@]21C
- IC50 (Progesterone receptor): > 1000 nM
- Activity (Rattus norvegicus [1]): Active
- inhibition in vivo at 19 mg/kg (Rattus norvegicus [2]): 44.6%
- Vd [3]: 3.22 L/kg
- Activity (Rattus norvegicus [4]): 170.7 mg
- Activity (Rattus norvegicus [5]): 23.4%
- inhibition in vivo at 5 mg/kg (Rattus norvegicus [6]): 35.6%
- Activity (Rattus norvegicus [7]): 39 mg
- Activity (Rattus norvegicus [8]): 330.9 mg
- Activity (Rattus norvegicus [9]): 305.3 mg
- Activity [10]: 104%
- Activity (Rattus norvegicus [11]): 7.5 g
- Activity (Rattus norvegicus [12]): 10 g
- ED50 (Mus musculus): 0.1 mg/kg
- Activity (Rattus norvegicus [13]): 144.9 mg
- Activity (Rattus norvegicus [14]): 7.3 g
- inhibition in vivo at 10 mg/kg (Rattus norvegicus [15]): 33.5%
- bioavailability [16]: 43%
- Activity (Rattus norvegicus [17]): 30.8 mg
- IC50 (Glucocorticoid receptor): 5.1 nM
- Activity (Rattus norvegicus [18]): Active
- Activity (Rattus norvegicus [19]): Active
- half-life [20]: 2.2 h
- Activity (Rattus norvegicus [21]): 36.8 mg
- Activity (Rattus norvegicus [22]): Active
- Activity (Rattus norvegicus [23]): 11 g
- Activity (Rattus norvegicus [24]): 311.2 mg
- Activity (Rattus norvegicus [25]): 119.9 mg
- Activity (Rattus norvegicus [26]): 5.9 g
- clearance [27]: 26 mL/min/kg
- Activity (Rattus norvegicus [28]): 5.6 g
